What was measured:
Everolimus = compound: CO[C@H]1C[C@@H]2CC[C@@H](C)[C@@](O)(O2)C(=O)C(=O)N2CCCC[C@H]2C(=O)O[C@H]([C@H](C)C[C@@H]2CC[C@@H](OCCO)[C@H](OC)C2)CC(=O)[C@H](C)/C=C(\C)[C@@H](O)[C@@H](OC)C(=O)[C@H](C)C[C@H](C)/C=C/C=C/C=C/1C [Everolimus]
[1] = compound: COc1cccc(OCCCN)c1-c1cc(Nc2cnc(C#N)cn2)n[nH]1
THZ531 = compound: CN(C)C/C=C/C(=O)Nc1ccc(C(=O)N2CCC[C@@H](Nc3ncc(Cl)c(-c4c[nH]c5ccccc45)n3)C2)cc1 [THZ531]; assay: GR value, 72 h; higher = faster growth (1 = untreated, <0 = killing);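 also: breast cancer and non-malignant breast epithelial lines, nine half-log doses, viable cells counted by Hoechst and LIVE/DEAD dye imaging versus time-zero plates and DMSO controls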
YKL-5-124 [2] = compound: T1, C=CC(=O)Nc1ccc(C(=O)Nc2[nH]nc3c2CN(C(=O)N[C@H](CN(C)C)c2ccccc2)C3(C)C)cc1 [YKL-5-124]; assay: as above
YKL-5-124 [3] = compound: T1, YKL-5-124
Etoposide = compound: COc1cc([C@@H]2c3cc4c(cc3[C@@H](O[C@@H]3O[C@@H]5CO[C@@H](C)O[C@H]5[C@H](O)[C@H]3O)[C@H]3COC(=O)[C@H]23)OCO4)cc(OC)c1O [Etoposide]
Cisplatin = compound: N.N.Cl[Pt]Cl [Cisplatin]
Topotecan = compound: CC[C@@]1(O)C(=O)OCc2c1cc1n(c2=O)Cc2cc3c(CN(C)C)c(O)ccc3nc2-1 [Topotecan]
Bleomycin = compound: CC1=C(N=C(N=C1N)[C@H](CC(=O)N)NC[C@@H](C(=O)N)N)C(=O)N[C@@H]([C@H](C2=CN=CN2)OC3C(C(C(C(O3)CO)O)O)OC4C(C(C(C(O4)CO)O)OC(=O)N)O)C(=O)N[C@H](C)[C@H]([C@H](C)C(=O)N[C@@H]([C@@H](C)O)C(=O)NCCC5=NC(=CS5)C6=NC(=CS6)C(=O)NCCC[S+](C)C)O [Bleomycin]; details: main component drawn
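For GR50, 72 h in this document: breast cancer and non-malignant breast epithelial cell lines, Deep Dye Drop or Dye Drop imaging, nine half-log doses, GR normalized to time-zero plates and DMSO-only controls.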

Row | Cell Line | GR50, 72 h (Everolimus) | GR50, 72 h [1] | GR value (THZ531; 0.0001 µM) | GR value (THZ531; 0.0003162 µM) | GR value (THZ531; 0.001 µM) | GR value (THZ531; 0.003162 µM) | GR value (THZ531; 0.01 µM) | GR value (THZ531; 0.03162 µM) | GR value (THZ531; 0.1 µM) | GR value (THZ531; 0.3162 µM) | GR value (THZ531; 1 µM) | GR value (YKL-5-124 [2]; 0.001 µM) | GR value (YKL-5-124 [2]; 0.003162 µM) | GR value (YKL-5-124 [2]; 0.01 µM) | GR value (YKL-5-124 [2]; 0.03162 µM) | GR value (YKL-5-124 [2]; 0.1 µM) | GR value (YKL-5-124 [2]; 0.3162 µM) | GR value (YKL-5-124 [2]; 1 µM) | GR value (YKL-5-124 [2]; 3.162 µM) | GR value (YKL-5-124 [2]; 10 µM) | GR50, 72 h (YKL-5-124 [3]) | GR50, 72 h (Etoposide) | GR50, 72 h (Cisplatin) | GR50, 72 h (Topotecan) | GR50, 72 h (Bleomycin)
1 | MDAMB175VII | < 0.001 µM | 0.0266 µM | 0.885 GR | 0.884 GR | 0.841 GR | 0.919 GR | 1 GR | 0.677 GR | -0.409 GR | -0.673 GR | -0.403 GR | 0.0803 GR | 0.0736 GR | 0.0488 GR | 0.076 GR | 0.0075 GR | 0.118 GR | -0.0042 GR | 0.0879 GR | -0.754 GR |  |  |  |  | 
2 | SUM190PT | 0.00331 µM | 0.00042 µM | 1.07 GR | 0.955 GR | 0.949 GR | 0.966 GR | 1.12 GR | 0.889 GR | -0.322 GR | -0.725 GR | -0.492 GR | 0.557 GR | 0.365 GR | 0.267 GR | 0.198 GR | 0.212 GR | 0.0489 GR | 0.154 GR | 0.102 GR | -0.42 GR | < 0.001 µM |  |  |  | 
3 | HCC1569 | > 10 µM | 0.00228 µM | 1.2 GR | 1.02 GR | 1.03 GR | 1.15 GR | 1.09 GR | 0.907 GR | -0.21 GR | -0.155 GR | 0.0205 GR | 0.373 GR | 0.541 GR | 0.302 GR | 0.277 GR | 0.443 GR | 0.124 GR | 0.175 GR | 0.0783 GR | -0.266 GR |  |  |  |  | 
4 | UACC893 |  | 0.0579 µM | 1.05 GR | 1.05 GR | 0.907 GR | 1.06 GR | 1.08 GR | 0.743 GR | -0.298 GR | -0.396 GR | -0.421 GR | 0.472 GR | 0.473 GR | 0.363 GR | 0.342 GR | 0.215 GR | 0.246 GR | 0.219 GR | 0.119 GR | -0.629 GR | 0.00386 µM |  |  |  | 
5 | SUM229PE | > 10 µM | 0.00707 µM | 1.03 GR | 0.991 GR | 0.943 GR | 1.01 GR | 1.07 GR | 1.08 GR | 0.915 GR | 0.506 GR | -0.133 GR | 0.467 GR | 0.321 GR | 0.295 GR | 0.291 GR | 0.27 GR | 0.225 GR | 0.238 GR | 0.17 GR | -0.0733 GR | < 0.001 µM |  |  |  | 
6 | T47D | < 0.001 µM |  | 1.06 GR | 0.984 GR | 1.04 GR | 0.925 GR | 1.15 GR | 1.06 GR | 0.675 GR | -0.121 GR | -0.102 GR | 0.51 GR | 0.332 GR | 0.172 GR | 0.143 GR | 0.0629 GR | 0.0978 GR | 0.082 GR | 0.0131 GR | -0.175 GR | < 0.001 µM | 0.0417 µM | 1.57 µM | 0.00523 µM | 0.199 µM
7 | MCF10A | > 10 µM |  | 0.985 GR | 0.995 GR | 1.01 GR | 1 GR | 1.01 GR | 0.981 GR | 0.903 GR | 0.612 GR | -0.625 GR | 0.472 GR | 0.235 GR | 0.149 GR | 0.0788 GR | 0.0321 GR | 0.0253 GR | 0.0094 GR | -0.0385 GR | -0.153 GR | < 0.001 µM | 0.284 µM | 4.29 µM | 0.00987 µM | 0.177 µM
8 | MCF7 | 0.00269 µM |  | 0.957 GR | 1.06 GR | 0.957 GR | 1.02 GR | 1.08 GR | 0.827 GR | 0.225 GR | -0.0791 GR | -0.391 GR | 0.557 GR | 0.403 GR | 0.316 GR | 0.266 GR | 0.18 GR | 0.0831 GR | 0.131 GR | 0.0763 GR | -0.269 GR | < 0.001 µM | 0.135 µM | 9.32 µM | 0.00604 µM | 0.0772 µM
9 | SUM185PE | > 10 µM |  | 1.06 GR | 1 GR | 1.02 GR | 1.02 GR | 1.03 GR | 1.06 GR | 0.851 GR | -0.187 GR | 0.19 GR | 0.7 GR | 0.648 GR | 0.517 GR | 0.469 GR | 0.434 GR | 0.474 GR | 0.496 GR | 0.231 GR | -0.008 GR | 0.0819 µM |  |  |  | 
10 | MGH312 | < 0.001 µM |  | 1.09 GR | 1.17 GR | 0.736 GR | 1.06 GR | 1.32 GR | 0.538 GR | -0.928 GR | -0.947 GR | -0.909 GR | 0.624 GR | 0.384 GR | 0.182 GR | 0.299 GR | 0.104 GR | 0.0051 GR | -0.083 GR | -0.264 GR | -0.924 GR | 0.00434 µM |  |  |  | 
11 | HCC1187 | > 10 µM |  | 0.932 GR | 1.02 GR | 0.99 GR | 1.04 GR | 0.976 GR | 0.879 GR | -0.437 GR | -0.852 GR |  | 0.478 GR | 0.459 GR | 0.209 GR | 0.309 GR | 0.195 GR | 0.222 GR | 0.0281 GR | -0.0235 GR | -0.529 GR |  |  |  |  | 
12 | HCC70 | 0.245 µM |  | 1.09 GR | 0.962 GR | 1.15 GR | 1.02 GR | 1.16 GR | 0.962 GR | -0.197 GR | -0.793 GR | -0.941 GR | -0.0339 GR | -0.217 GR | -0.27 GR | -0.419 GR | -0.484 GR | -0.506 GR | -0.608 GR | -0.727 GR | -0.871 GR | < 0.001 µM | 0.365 µM | 1.32 µM | 0.00946 µM | 0.398 µM
13 | HCC1806 | > 10 µM |  | 0.976 GR | 0.999 GR | 1.04 GR | 1.01 GR | 1.07 GR | 1 GR | 0.992 GR | 0.659 GR | -0.489 GR | 0.386 GR | 0.232 GR | 0.105 GR | 0.0295 GR | -0.0411 GR | -0.075 GR | -0.155 GR | -0.19 GR | -0.466 GR | < 0.001 µM | 0.0964 µM | 0.833 µM | 0.00527 µM | 8.98 µM
14 | MDAMB157 | > 10 µM |  |  |  |  |  |  |  |  |  |  |  |  |  |  |  |  |  |  |  |  | 0.112 µM | 5.24 µM | 0.00595 µM | 1.29 µM
15 | PDX1206 |  | 0.00357 µM | 1.14 GR | 0.992 GR | 1.01 GR | 1.05 GR | 1.02 GR | 0.9 GR | -0.371 GR | -0.273 GR | -0.29 GR | 0.821 GR | 0.683 GR | 0.588 GR | 0.519 GR | 0.461 GR | 0.444 GR | 0.323 GR | 0.205 GR | -0.502 GR | 0.0811 µM |  |  |  | 

From the supplement of paper PMC9663587
